{
  "source": "paper PMC8766756",
  "about": "“Insights on Cancer Cell Inhibition, Subcellular Activities, and Kinase Profile of Phenylacetamides Pending 1H-Imidazol-5-One Variants” (Frontiers in Pharmacology, 2022)",
  "assay_in_all_cases": "PamChip tyrosine kinase microarray",
  "format_in_all_cases": "biochemical",
  "conditions_in_all_cases": "0.1 µM, HL60 lysate",
  "key": {"CCK4/PTK7 (Q13308)": {"target": "T1, CCK4/PTK7 (Q13308) (Homo sapiens, UniProt Q13308)", "T1 construct": "purchased PamGene (PamChip PTK array, Upstream Kinase Analysis)", "T1 sequence (Q13308 31-1070)": "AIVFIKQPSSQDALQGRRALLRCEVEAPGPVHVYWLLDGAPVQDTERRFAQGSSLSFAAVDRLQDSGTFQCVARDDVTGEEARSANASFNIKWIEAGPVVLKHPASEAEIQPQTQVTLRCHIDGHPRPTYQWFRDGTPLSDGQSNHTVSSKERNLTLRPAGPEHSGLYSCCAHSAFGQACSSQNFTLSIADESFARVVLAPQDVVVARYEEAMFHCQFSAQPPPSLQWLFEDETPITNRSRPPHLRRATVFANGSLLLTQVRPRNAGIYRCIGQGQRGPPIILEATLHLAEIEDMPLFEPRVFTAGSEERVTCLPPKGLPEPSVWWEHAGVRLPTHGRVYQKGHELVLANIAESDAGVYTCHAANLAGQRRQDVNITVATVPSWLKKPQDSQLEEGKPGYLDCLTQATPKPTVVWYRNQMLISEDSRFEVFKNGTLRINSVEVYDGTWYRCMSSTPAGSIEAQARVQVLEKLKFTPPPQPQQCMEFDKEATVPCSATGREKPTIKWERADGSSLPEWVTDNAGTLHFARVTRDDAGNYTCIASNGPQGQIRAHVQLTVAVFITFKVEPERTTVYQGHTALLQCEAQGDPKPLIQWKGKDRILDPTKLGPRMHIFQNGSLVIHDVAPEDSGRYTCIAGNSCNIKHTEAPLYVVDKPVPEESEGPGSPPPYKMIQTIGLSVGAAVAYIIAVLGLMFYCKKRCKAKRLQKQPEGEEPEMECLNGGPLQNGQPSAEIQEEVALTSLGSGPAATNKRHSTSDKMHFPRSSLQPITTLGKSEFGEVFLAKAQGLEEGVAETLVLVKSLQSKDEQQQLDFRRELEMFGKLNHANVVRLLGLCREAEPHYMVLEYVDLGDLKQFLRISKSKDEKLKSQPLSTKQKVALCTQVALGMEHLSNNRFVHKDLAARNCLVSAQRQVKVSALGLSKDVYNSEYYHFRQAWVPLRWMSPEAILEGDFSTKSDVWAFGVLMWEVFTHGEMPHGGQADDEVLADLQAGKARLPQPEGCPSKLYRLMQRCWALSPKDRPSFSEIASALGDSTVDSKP", "in_short": "(§1)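 HL60 (AML) cell lysate was spiked with compound at 0.001, 0.01, 0.1, 1, 10 and 50 µM, or 2% v/v DMSO as control, then profiled in technical replicates on a tyrosine kinase peptide array of 196 phosphosites. Kinase activity was inferred from peptide-set changes using an upstream kinase tool.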"}, "EGFR (P00533)": {"target": "T2, EGFR (P00533) (Homo sapiens, UniProt P00533)", "T2 construct": "purchased PamGene (PamChip PTK array, Upstream Kinase Analysis)", "T2 sequence (P00533 25-1210)": "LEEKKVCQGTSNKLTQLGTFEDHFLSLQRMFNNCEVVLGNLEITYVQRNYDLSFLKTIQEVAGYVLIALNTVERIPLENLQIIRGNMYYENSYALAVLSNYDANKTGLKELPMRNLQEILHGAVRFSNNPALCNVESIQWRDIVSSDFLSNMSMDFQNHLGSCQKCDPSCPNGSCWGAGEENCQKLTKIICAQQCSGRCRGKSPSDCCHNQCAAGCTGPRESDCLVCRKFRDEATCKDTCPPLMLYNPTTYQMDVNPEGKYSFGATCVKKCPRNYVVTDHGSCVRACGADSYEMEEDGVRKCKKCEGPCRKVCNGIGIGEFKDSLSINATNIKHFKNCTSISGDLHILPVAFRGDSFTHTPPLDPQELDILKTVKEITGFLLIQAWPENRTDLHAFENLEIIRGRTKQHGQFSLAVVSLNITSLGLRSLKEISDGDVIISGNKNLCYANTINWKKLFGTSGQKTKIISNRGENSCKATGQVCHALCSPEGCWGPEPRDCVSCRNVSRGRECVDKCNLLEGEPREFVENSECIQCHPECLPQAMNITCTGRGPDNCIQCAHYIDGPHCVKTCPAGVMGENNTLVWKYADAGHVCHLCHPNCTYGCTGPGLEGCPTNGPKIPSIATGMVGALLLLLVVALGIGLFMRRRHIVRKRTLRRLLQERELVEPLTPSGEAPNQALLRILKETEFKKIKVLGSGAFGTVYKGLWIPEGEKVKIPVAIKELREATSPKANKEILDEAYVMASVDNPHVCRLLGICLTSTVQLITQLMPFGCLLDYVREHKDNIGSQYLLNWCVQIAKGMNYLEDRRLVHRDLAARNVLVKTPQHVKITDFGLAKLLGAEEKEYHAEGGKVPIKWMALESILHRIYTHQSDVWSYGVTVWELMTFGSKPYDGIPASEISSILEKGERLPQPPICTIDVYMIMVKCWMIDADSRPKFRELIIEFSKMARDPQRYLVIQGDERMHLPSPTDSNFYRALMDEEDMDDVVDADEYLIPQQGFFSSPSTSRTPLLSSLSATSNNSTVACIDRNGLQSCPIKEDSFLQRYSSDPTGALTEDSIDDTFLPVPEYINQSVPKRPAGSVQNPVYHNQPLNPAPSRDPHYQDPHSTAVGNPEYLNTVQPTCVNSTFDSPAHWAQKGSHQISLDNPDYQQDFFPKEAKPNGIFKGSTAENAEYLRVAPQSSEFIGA", "in_short": "as §1"}, "EphA7 (Q15375)": {"target": "T3, EphA7 (Q15375) (Homo sapiens, UniProt Q15375)", "T3 construct": "purchased PamGene (PamChip PTK array, Upstream Kinase Analysis)", "in_short": "as §1"}, "Fgr (P09769)": {"target": "T4, Fgr (P09769) (Homo sapiens, UniProt P09769)", "T4 construct": "purchased PamGene (PamChip PTK array, Upstream Kinase Analysis)", "in_short": "as §1"}, "JAK1~b (P23458)": {"target": "T5, JAK1~b (P23458) (Homo sapiens, UniProt P23458)", "T5 construct": "JAK1~b (P23458); purchased PamGene (PamChip PTK array, Upstream Kinase Analysis)", "in_short": "as §1"}, "KDR (P35968)": {"target": "T6, KDR (P35968) (Homo sapiens, UniProt P35968)", "T6 construct": "purchased PamGene (PamChip PTK array, Upstream Kinase Analysis)", "T6 sequence (P35968 20-1356)": "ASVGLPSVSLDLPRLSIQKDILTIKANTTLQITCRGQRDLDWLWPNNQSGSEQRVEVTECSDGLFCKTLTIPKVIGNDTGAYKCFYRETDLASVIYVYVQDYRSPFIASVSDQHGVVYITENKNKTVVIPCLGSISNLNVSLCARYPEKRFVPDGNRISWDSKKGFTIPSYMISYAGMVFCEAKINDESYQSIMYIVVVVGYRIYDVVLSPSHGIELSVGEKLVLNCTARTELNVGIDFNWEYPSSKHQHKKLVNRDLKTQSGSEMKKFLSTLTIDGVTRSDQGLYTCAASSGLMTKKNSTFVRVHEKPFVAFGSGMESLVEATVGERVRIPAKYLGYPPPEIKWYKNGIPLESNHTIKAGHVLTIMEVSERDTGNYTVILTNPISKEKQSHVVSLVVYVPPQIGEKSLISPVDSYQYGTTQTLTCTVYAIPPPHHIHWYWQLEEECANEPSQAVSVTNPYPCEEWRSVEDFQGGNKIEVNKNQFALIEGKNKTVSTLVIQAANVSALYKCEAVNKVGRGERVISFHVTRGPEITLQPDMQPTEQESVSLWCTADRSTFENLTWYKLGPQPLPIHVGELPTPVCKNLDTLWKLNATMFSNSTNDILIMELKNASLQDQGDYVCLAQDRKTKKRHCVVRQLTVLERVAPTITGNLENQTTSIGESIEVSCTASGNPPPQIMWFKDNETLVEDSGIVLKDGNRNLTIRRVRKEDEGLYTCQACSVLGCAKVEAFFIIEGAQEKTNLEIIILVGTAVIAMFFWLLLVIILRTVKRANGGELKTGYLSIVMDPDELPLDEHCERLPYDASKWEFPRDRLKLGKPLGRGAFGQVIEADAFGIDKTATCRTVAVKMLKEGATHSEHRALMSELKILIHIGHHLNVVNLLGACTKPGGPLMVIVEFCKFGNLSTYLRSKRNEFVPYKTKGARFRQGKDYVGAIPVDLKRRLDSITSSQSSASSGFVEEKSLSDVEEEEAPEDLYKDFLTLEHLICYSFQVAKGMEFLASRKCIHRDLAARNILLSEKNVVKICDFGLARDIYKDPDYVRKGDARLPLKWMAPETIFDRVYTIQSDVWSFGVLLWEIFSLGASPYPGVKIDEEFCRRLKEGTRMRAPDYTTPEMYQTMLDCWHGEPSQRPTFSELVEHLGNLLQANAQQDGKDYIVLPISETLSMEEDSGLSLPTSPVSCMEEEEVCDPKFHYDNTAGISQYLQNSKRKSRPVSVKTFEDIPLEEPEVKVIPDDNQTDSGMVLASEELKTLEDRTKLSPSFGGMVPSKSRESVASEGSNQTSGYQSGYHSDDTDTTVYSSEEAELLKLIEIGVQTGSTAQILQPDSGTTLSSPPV", "in_short": "as §1"}, "LTK (P29376)": {"target": "T7, LTK (P29376) (Homo sapiens, UniProt P29376)", "T7 construct": "purchased PamGene (PamChip PTK array, Upstream Kinase Analysis)", "T7 sequence (P29376 17-864)": "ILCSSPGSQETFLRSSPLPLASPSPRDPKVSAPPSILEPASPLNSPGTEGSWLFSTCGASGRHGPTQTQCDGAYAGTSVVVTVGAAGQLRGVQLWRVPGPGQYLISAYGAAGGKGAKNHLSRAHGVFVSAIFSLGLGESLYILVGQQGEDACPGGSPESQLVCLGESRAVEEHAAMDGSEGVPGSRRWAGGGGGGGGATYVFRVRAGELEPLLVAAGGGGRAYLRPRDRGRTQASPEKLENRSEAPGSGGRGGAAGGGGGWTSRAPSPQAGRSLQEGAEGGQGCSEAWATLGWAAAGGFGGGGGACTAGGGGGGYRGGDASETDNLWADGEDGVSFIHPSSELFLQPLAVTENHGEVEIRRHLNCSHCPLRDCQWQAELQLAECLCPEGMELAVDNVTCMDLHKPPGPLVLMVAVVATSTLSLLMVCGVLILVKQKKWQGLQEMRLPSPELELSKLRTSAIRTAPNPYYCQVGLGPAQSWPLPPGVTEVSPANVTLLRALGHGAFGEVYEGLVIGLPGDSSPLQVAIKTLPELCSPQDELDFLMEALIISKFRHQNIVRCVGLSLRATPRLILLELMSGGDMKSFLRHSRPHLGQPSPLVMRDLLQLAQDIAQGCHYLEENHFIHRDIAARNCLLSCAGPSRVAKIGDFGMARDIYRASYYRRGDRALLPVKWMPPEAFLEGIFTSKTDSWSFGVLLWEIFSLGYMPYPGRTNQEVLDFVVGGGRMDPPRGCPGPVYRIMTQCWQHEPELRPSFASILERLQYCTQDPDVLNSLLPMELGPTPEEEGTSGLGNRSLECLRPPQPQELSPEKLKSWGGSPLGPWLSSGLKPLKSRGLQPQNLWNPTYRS", "in_short": "as §1"}, "Ron (Q04912)": {"target": "T8, Ron (Q04912) (Homo sapiens, UniProt Q04912)", "T8 construct": "purchased PamGene (PamChip PTK array, Upstream Kinase Analysis)", "T8 sequence (Q04912 25-1400)": "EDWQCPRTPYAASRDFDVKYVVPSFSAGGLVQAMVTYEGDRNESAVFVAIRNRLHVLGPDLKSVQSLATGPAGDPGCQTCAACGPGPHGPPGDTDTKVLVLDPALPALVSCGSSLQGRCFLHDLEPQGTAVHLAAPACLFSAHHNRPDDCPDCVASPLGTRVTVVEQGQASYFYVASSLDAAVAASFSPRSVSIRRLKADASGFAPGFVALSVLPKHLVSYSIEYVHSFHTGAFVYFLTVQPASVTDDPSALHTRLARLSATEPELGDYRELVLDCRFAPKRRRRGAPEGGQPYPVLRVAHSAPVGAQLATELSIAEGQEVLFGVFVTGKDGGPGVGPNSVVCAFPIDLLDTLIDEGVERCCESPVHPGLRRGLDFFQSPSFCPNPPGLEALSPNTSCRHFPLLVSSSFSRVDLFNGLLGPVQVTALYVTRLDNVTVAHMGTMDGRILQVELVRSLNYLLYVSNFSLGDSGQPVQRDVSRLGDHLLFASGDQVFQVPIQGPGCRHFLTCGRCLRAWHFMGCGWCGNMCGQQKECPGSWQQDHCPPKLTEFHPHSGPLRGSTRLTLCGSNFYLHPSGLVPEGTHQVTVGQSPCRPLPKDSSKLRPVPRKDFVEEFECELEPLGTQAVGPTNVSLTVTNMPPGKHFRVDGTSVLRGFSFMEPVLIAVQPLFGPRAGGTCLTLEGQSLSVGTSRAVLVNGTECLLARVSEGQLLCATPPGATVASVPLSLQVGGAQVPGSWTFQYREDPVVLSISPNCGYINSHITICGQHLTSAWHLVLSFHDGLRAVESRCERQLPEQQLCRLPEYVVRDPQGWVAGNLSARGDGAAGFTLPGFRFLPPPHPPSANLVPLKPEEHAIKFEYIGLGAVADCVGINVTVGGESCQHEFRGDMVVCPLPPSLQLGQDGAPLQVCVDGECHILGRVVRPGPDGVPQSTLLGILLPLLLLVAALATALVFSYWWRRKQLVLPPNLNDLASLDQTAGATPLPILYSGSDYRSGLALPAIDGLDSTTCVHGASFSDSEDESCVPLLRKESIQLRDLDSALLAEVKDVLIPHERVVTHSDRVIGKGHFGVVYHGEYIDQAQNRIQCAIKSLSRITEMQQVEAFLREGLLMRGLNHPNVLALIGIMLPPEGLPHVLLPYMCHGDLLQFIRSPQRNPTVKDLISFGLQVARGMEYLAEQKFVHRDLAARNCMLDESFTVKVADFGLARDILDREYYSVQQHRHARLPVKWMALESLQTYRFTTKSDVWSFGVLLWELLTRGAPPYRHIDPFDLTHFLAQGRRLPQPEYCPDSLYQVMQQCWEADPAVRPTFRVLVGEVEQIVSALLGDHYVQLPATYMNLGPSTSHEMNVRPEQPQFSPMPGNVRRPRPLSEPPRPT", "in_short": "as §1"}},
  "note": "Values joined by “and” are separate entries in the source; they are usually repeats but may differ in a detail not shown here. Identical values can stand only once.",
  "data": [
    {"smiles": "COc1ccc(/C=C2\\N=C(C)N(c3ccc(CC(=O)NCc4ccccc4)cc3)C2=O)cc1", "note": "[Compound 4c, (Z)-N-Benzyl-2-(4-(4-(4-methoxybenzylidene)-2-methyl-5-oxo-4,5-dihydro-1H-imidazol-1-yl)phenyl)acetamide]", "values": [
      {"measurement": "Mean Significance Score", "setting": "CCK4/PTK7 (Q13308)", "result": 1.989},
      {"measurement": "Mean Specificity Score", "setting": "CCK4/PTK7 (Q13308)", "result": 0.5841},
      {"measurement": "Mean Final score (Kinase score)", "setting": "CCK4/PTK7 (Q13308); listed as KIM-161", "result": "2.60 and 2.5986"},
      {"measurement": "Mean Final score (Kinase score)", "setting": "EGFR (P00533)", "result": 2.116},
      {"measurement": "Mean Kinase Statistic", "setting": "EGFR (P00533)", "result": -1.053},
      {"measurement": "Mean Significance Score", "setting": "EGFR (P00533)", "result": 2.048},
      {"measurement": "Mean Specificity Score", "setting": "EGFR (P00533)", "result": 0.03887},
      {"measurement": "Mean Final score (Kinase score)", "setting": "EphA7 (Q15375)", "result": 0.8806},
      {"measurement": "Mean Kinase Statistic", "setting": "EphA7 (Q15375)", "result": -0.6736},
      {"measurement": "Mean Significance Score", "setting": "EphA7 (Q15375)", "result": 0.8204},
      {"measurement": "Mean Specificity Score", "setting": "EphA7 (Q15375)", "result": 0.0595},
      {"measurement": "Mean Final score (Kinase score)", "setting": "Fgr (P09769)", "result": 2.293},
      {"measurement": "Mean Kinase Statistic", "setting": "Fgr (P09769)", "result": -1.161},
      {"measurement": "Mean Significance Score", "setting": "Fgr (P09769)", "result": 1.8658},
      {"measurement": "Mean Specificity Score", "setting": "Fgr (P09769)", "result": 0.2752},
      {"measurement": "Mean Significance Score", "setting": "JAK1~b (P23458)", "result": 1.955},
      {"measurement": "Mean Specificity Score", "setting": "JAK1~b (P23458)", "result": 1.609},
      {"measurement": "Mean Final score (Kinase score)", "setting": "JAK1~b (P23458); listed as KIM-161", "result": "3.51 and 3.514"},
      {"measurement": "Mean Final score (Kinase score)", "setting": "KDR (P35968)", "result": 2.535},
      {"measurement": "Mean Kinase Statistic", "setting": "KDR (P35968)", "result": -1.256},
      {"measurement": "Mean Significance Score", "setting": "KDR (P35968)", "result": 2.048},
      {"measurement": "Mean Specificity Score", "setting": "KDR (P35968)", "result": 0.5472},
      {"measurement": "Mean Final score (Kinase score)", "setting": "LTK (P29376)", "result": 1.968},
      {"measurement": "Mean Kinase Statistic", "setting": "LTK (P29376)", "result": -1.055},
      {"measurement": "Mean Significance Score", "setting": "LTK (P29376)", "result": 1.724},
      {"measurement": "Mean Specificity Score", "setting": "LTK (P29376)", "result": 0.1654},
      {"measurement": "Mean Significance Score", "setting": "Ron (Q04912)", "result": 2.048},
      {"measurement": "Mean Specificity Score", "setting": "Ron (Q04912)", "result": 0.9095},
      {"measurement": "Mean Final score (Kinase score)", "setting": "Ron (Q04912); listed as KIM-161", "result": "2.96 and 2.957"}
    ]}
  ]
}
